These results are taken from patent US10004701B2, “Methods and compositions for treating infection” (UNIVERSITY OF ROCHESTER, priority 2012, dated 2018).

Counter-ions that a name gives are not always drawn. Like-named read-outs stand apart in the source and are kept apart here.

Common to all, as to experiment: AK assay 384-well format, Prestwick library screening
In experiment [1] the test system is E. faecium. It is filed as cell-based, Enterococcus faecium. The note with it: Enterococcus faecium, 3 h, 50 μM final drug concentration.
The test system of experiment [2] is S. aureus strain USA300-0114. It is filed as cell-based, Staphylococcus aureus. The following applies: Staphylococcus aureus, USA300, 3 h, 50 μM final drug concentration.
Experiment [3] has as its system K. pneumoniae. It is filed as cell-based, Klebsiella pneumoniae. The following applies: Klebsiella pneumoniae, 3 h, 50 μM final drug concentration.
For experiment [4], the system named is A. baumannii strain 98-37-09. Type of experiment: cell-based, Acinetobacter baumannii. The note with it: Acinetobacter baumannii, 983709, 3 h, 50 μM final drug concentration.
For experiment [5], the system named is P. aeruginosa. Type of experiment: cell-based, Pseudomonas aeruginosa. The following applies: Pseudomonas aeruginosa, 3 h, 50 μM final drug concentration.
The subject of experiment [6] is E. cloacae. Type of experiment: cell-based, Enterobacter cloacae. The note with it: Enterobacter cloacae, 3 h, 50 μM final drug concentration.
The test system of experiment [7] is E. coli. Type of experiment: cell-based, Escherichia coli. The note with it: Escherichia coli, 3 h, 50 μM final drug concentration.
Setting [8] is: cutoff for positive-scoring molecules 3-fold increase, read-out: AK-based Prestwick Library Screening Results, E. faecium (fold increase in extracellular AK activity).
Where [9] appears, read: cutoff for positive-scoring molecules 3-fold increase, read-out: AK-based Prestwick Library Screening Results, S. aureus (fold increase in extracellular AK activity).
Where [10] appears, read: cutoff for positive-scoring molecules 3-fold increase, read-out: AK-based Prestwick Library Screening Results, K. pneumoniae (fold increase in extracellular AK activity).
The mark [11] stands for this setting: cutoff for positive-scoring molecules 3-fold increase, read-out: AK-based Prestwick Library Screening Results, A. baumannii (fold increase in extracellular AK activity).
[12] abbreviates: cutoff for positive-scoring molecules 3-fold increase, read-out: AK-based Prestwick Library Screening Results, P. aeruginosa (fold increase in extracellular AK activity).
Where [13] appears, read: cutoff for positive-scoring molecules 3-fold increase, read-out: AK-based Prestwick Library Screening Results, E. cloacae (fold increase in extracellular AK activity).
[14] abbreviates: cutoff for positive-scoring molecules 3-fold increase, read-out: AK-based Prestwick Library Screening Results, E. coli (fold increase in extracellular AK activity).
The mark [15] stands for this setting: planktonic E. faecium, positive cutoff 3-fold increase, read-out: AK-based Prestwick library screening result, E. faecium (fold increase in extracellular AK activity).
Setting [16] is: planktonic S. aureus, positive cutoff 3-fold increase, read-out: AK-based Prestwick library screening result, S. aureus (fold increase in extracellular AK activity).
Setting [17] is: planktonic K. pneumoniae, positive cutoff 3-fold increase, read-out: AK-based Prestwick library screening result, K. pneumoniae (fold increase in extracellular AK activity).
[18] abbreviates: planktonic A. baumannii, positive cutoff 3-fold increase, read-out: AK-based Prestwick library screening result, A. baumannii (fold increase in extracellular AK activity).
[19] abbreviates: planktonic P. aeruginosa, positive cutoff 3-fold increase, read-out: AK-based Prestwick library screening result, P. aeruginosa (fold increase in extracellular AK activity).
Setting [20] is: planktonic E. cloacae, positive cutoff 3-fold increase, read-out: AK-based Prestwick library screening result, E. cloacae (fold increase in extracellular AK activity).
The mark [21] stands for this setting: planktonic E. coli, positive cutoff 3-fold increase, read-out: AK-based Prestwick library screening result, E. coli (fold increase in extracellular AK activity).
The mark [22] stands for this setting: 384-well format, cutoff for positive-scoring molecules 3-fold increase, read-out: AK-based Prestwick Library Screening Results, E. faecium (increase in extracellular AK activity).
Where [23] appears, read: 384-well format, cutoff for positive-scoring molecules 3-fold increase, read-out: AK-based Prestwick Library Screening Results, S. aureus (increase in extracellular AK activity).
Where [24] appears, read: 384-well format, cutoff for positive-scoring molecules 3-fold increase, read-out: AK-based Prestwick Library Screening Results, K. pneumoniae (increase in extracellular AK activity).
Setting [25] is: 384-well format, cutoff for positive-scoring molecules 3-fold increase, read-out: AK-based Prestwick Library Screening Results, A. baumannii (increase in extracellular AK activity).
Where [26] appears, read: 384-well format, cutoff for positive-scoring molecules 3-fold increase, read-out: AK-based Prestwick Library Screening Results, P. aeruginosa (increase in extracellular AK activity).
Setting [27] is: 384-well format, cutoff for positive-scoring molecules 3-fold increase, read-out: AK-based Prestwick Library Screening Results, E. cloacae (increase in extracellular AK activity).
The mark [28] stands for this setting: 384-well format, cutoff for positive-scoring molecules 3-fold increase, read-out: AK-based Prestwick Library Screening Results, E. coli (increase in extracellular AK activity).

As to `Nc1cc(-c2ccncc2)c[nH]c1=O` [Amrinone], the fold induction at 50 µM in experiment [1] (setting [8]) came to 1; in experiment [2] (setting [9]), 1.1; in experiment [3] (setting [10]), 1.1; in experiment [4] (setting [11]), 1.2; in experiment [5] (setting [12]), 1; in experiment [6] (setting [13]), 44. Moreover, the fold induction at 50 µM in experiment [7] (setting [14]) is 1.3.

For `O=P1(NCCCl)OCCCN1CCCl` (stereo not drawn) [Ifosfamide], the fold induction at 50 µM was determined as 0.8 in experiment [1] (planktonic, cutoff for positive-scoring molecules 3-fold increase, read-out: AK-based Prestwick Library Screening Results, E. faecium (fold increase in extracellular AK activity)); 0.8 in experiment [2] (planktonic, cutoff for positive-scoring molecules 3-fold increase, read-out: AK-based Prestwick Library Screening Results, S. aureus (fold increase in extracellular AK activity)); 0.7 in experiment [3] (planktonic, cutoff for positive-scoring molecules 3-fold increase, read-out: AK-based Prestwick Library Screening Results, K. pneumoniae (fold increase in extracellular AK activity)); 0.8 in experiment [4] (planktonic, cutoff for positive-scoring molecules 3-fold increase, read-out: AK-based Prestwick Library Screening Results, A. baumannii (fold increase in extracellular AK activity)); 0.9 in experiment [5] (planktonic, cutoff for positive-scoring molecules 3-fold increase, read-out: AK-based Prestwick Library Screening Results, P. aeruginosa (fold increase in extracellular AK activity)); 1.4 in experiment [6] (planktonic, cutoff for positive-scoring molecules 3-fold increase, read-out: AK-based Prestwick Library Screening Results, E. cloacae (fold increase in extracellular AK activity)). For the same molecule, in experiment [7] (planktonic, cutoff for positive-scoring molecules 3-fold increase, read-out: AK-based Prestwick Library Screening Results, E. coli (fold increase in extracellular AK activity)), the fold induction at 50 µM came out at 9.

As for `C[C@H](N)[C@H](O)c1ccc(O)c(O)c1` [Levonordefrin], the fold induction at 50 µM in experiment [1] (planktonic, […], read-out: AK-based Prestwick Library Screening Results, E. faecium (fold increase in extracellular AK activity)) was 1; in experiment [2] (planktonic, […], read-out: AK-based Prestwick Library Screening Results, S. aureus (fold increase in extracellular AK activity)), 0.6; in experiment [3] (planktonic, […], read-out: AK-based Prestwick Library Screening Results, K. pneumoniae (fold increase in extracellular AK activity)), 0.8; in experiment [4] (planktonic, […], read-out: AK-based Prestwick Library Screening Results, A. baumannii (fold increase in extracellular AK activity)), 0.8; in experiment [5] (planktonic, […], read-out: AK-based Prestwick Library Screening Results, P. aeruginosa (fold increase in extracellular AK activity)), 0.7; in experiment [6] (planktonic, […], read-out: AK-based Prestwick Library Screening Results, E. cloacae (fold increase in extracellular AK activity)) it was 0.7. The fold induction at 50 µM in experiment [7] (planktonic, […], read-out: AK-based Prestwick Library Screening Results, E. coli (fold increase in extracellular AK activity)) is 0.7.

Turning to `CC(C)(C)NC[C@H](O)COc1ccccc1C1CCCC1` [Penbutolol sulfate], the fold induction at 50 µM in experiment [1] (setting [8]) was 0.8; in experiment [2] (setting [9]), 0.4; in experiment [3] (setting [10]), 0.5; in experiment [4] (setting [11]), 0.4; in experiment [5] (setting [12]), 0.5; in experiment [6] (setting [13]) it was 0.4. Also, the fold induction at 50 µM in experiment [7] (setting [14]) was 0.5.

On to `COC(=O)Nc1nc2ccc(Sc3ccccc3)cc2[nH]1` [Fenbendazole], for which the fold induction at 50 µM in experiment [1] (planktonic E. faecium, 384-well, cutoff for positive-scoring molecules 3-fold increase, read-out: AK-based Prestwick Library Screening Results: E. faecium (increase in extracellular AK activity)) turned out to be 0.9; in experiment [2] (planktonic S. aureus, 384-well, cutoff for positive-scoring molecules 3-fold increase, read-out: AK-based Prestwick Library Screening Results: S. aureus (increase in extracellular AK activity)), 0.6; in experiment [3] (planktonic K. pneumoniae, 384-well, cutoff for positive-scoring molecules 3-fold increase, read-out: AK-based Prestwick Library Screening Results: K. pneumoniae (increase in extracellular AK activity)) it was 0.7; in experiment [4] (planktonic A. baumannii, 384-well, cutoff for positive-scoring molecules 3-fold increase, read-out: AK-based Prestwick Library Screening Results: A. baumannii (increase in extracellular AK activity)), 0.9; in experiment [5] (planktonic P. aeruginosa, 384-well, cutoff for positive-scoring molecules 3-fold increase, read-out: AK-based Prestwick Library Screening Results: P. aeruginosa (increase in extracellular AK activity)), 0.9; in experiment [6] (planktonic E. cloacae, 384-well, cutoff for positive-scoring molecules 3-fold increase, read-out: AK-based Prestwick Library Screening Results: E. cloacae (increase in extracellular AK activity)) it was 1.3. In addition, the fold induction at 50 µM in experiment [7] (planktonic E. coli, 384-well, cutoff for positive-scoring molecules 3-fold increase, read-out: AK-based Prestwick Library Screening Results: E. coli (increase in extracellular AK activity)) was 0.9.

As to `c1cnc(N2CCN(Cc3ccc4c(c3)OCO4)CC2)nc1` [Piribedil hydrochloride], the fold induction at 50 µM was determined as 0.9 in experiment [1] (setting [15]); 0.6 in experiment [2] (setting [16]); 0.5 in experiment [3] (setting [17]); 0.7 in experiment [4] (setting [18]); 0.6 in experiment [5] (setting [19]); 1 in experiment [6] (setting [20]). Also, in experiment [7] (setting [21]), the fold induction at 50 µM amounted to 0.6.

As for `CN(C)CCC(c1ccc(Cl)cc1)c1ccccn1` (stereo not drawn) [Chlorpheniramine maleate], the fold induction at 50 µM in experiment [1] (setting [22]) is 0.9; in experiment [2] (setting [23]) it was 0.8; in experiment [3] (setting [24]), 0.7; in experiment [4] (setting [25]) it was 0.9; in experiment [5] (setting [26]), 0.8; in experiment [6] (setting [27]) it was 1.1. Further, the fold induction at 50 µM in experiment [7] (setting [28]) was 1.

In the case of `COc1ccc(C(=O)NCc2cccnc2)cc1C(=O)NCc1cccnc1` [Picotamide monohydrate], the fold induction at 50 µM in experiment [1] (setting [22]) came out at 0.9; in experiment [2] (setting [23]), 0.7; in experiment [3] (setting [24]), 0.8; in experiment [4] (setting [25]), 0.9; in experiment [5] (setting [26]), 0.8; in experiment [6] (setting [27]) it was 1.2. Also, the fold induction at 50 µM in experiment [7] (setting [28]) was 0.9.

Consider `Nc1ccc(O)c(C(=O)O)c1` [Mesalamine], for which the fold induction at 50 µM was determined as 0.9 in experiment [1] (setting [15]); 0.7 in experiment [2] (setting [16]); 0.7 in experiment [3] (setting [17]); 0.9 in experiment [4] (setting [18]); 0.9 in experiment [5] (setting [19]); 1 in experiment [6] (setting [20]). In addition, in experiment [7] (setting [21]), the fold induction at 50 µM is 0.9.
